From ChEMBL document CHEMBL1142021, “Aglycon specificity profiling of alpha-glucosidases using synthetic probes” (Bioorg Med Chem Lett, 2005)

Tests used:
[1] = organism: Homo sapiens; experiment: Inhibition of Glucosidase 2 at 2 umol/mI
[2] = tested on: Saccharomyces cerevisiae; experiment: Inhibition of Saccharomyces cerevisiae glucosidase (of family 13 alpha-glucosidase) by compound with concentration 1 umol/mI
[3] = target: T1, Alpha-glucosidase (Apis mellifera) (UniProt Q17058); experiment: Inhibition of family 13 alpha-glucosidase isoform I from honey bee at 1 umol/mL
T1 sequence (whole entry): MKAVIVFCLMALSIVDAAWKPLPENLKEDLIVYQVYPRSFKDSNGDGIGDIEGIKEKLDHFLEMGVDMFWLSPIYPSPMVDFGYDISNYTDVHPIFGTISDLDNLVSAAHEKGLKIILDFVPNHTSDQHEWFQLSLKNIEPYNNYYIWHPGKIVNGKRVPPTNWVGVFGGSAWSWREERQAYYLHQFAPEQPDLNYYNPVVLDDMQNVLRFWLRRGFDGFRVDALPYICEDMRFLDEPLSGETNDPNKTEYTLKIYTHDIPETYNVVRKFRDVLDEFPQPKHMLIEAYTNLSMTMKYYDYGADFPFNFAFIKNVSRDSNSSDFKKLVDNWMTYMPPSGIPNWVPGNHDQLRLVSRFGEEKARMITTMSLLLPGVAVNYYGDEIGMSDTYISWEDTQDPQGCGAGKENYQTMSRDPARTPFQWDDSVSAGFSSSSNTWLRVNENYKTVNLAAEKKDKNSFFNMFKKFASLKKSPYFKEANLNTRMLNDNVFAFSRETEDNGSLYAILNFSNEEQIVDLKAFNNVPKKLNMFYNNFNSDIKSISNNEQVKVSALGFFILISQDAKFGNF

[4] = target: T2, Alpha-glucosidase (Oryza sativa Japonica Group) (UniProt Q9LGC6); experiment: Inhibition of Rice glucosidase (of family 31 alpha-glucosidase) at 1 umol/mL
T2 sequence (whole entry): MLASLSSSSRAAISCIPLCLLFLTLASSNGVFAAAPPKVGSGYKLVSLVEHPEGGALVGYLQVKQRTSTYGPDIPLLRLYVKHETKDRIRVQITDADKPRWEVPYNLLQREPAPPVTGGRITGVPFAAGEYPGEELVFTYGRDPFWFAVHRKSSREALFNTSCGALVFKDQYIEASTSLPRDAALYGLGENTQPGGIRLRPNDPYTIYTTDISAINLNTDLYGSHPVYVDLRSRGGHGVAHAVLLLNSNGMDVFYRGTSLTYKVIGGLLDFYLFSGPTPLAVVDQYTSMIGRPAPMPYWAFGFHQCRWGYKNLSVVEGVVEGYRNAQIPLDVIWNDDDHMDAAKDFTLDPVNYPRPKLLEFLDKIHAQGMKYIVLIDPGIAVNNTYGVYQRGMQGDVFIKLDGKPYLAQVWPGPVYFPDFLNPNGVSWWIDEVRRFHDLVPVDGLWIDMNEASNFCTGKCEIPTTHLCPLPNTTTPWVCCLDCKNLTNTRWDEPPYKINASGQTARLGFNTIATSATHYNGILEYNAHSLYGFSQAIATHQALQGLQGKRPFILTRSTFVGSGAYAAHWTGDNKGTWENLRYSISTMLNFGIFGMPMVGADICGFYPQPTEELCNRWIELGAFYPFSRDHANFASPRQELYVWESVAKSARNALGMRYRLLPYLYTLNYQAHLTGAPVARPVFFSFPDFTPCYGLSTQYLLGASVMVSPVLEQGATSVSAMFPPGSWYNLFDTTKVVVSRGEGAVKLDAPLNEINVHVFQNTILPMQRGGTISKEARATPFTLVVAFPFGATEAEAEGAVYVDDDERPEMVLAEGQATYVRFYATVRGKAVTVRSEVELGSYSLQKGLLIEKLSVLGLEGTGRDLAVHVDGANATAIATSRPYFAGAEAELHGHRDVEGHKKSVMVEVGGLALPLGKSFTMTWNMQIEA

[5] = target: T3, Beta-mannosidase (Homo sapiens) (UniProt O00462); experiment: Inhibition of beta-Mannosidase at 5 umol/mL
T3 sequence (whole entry): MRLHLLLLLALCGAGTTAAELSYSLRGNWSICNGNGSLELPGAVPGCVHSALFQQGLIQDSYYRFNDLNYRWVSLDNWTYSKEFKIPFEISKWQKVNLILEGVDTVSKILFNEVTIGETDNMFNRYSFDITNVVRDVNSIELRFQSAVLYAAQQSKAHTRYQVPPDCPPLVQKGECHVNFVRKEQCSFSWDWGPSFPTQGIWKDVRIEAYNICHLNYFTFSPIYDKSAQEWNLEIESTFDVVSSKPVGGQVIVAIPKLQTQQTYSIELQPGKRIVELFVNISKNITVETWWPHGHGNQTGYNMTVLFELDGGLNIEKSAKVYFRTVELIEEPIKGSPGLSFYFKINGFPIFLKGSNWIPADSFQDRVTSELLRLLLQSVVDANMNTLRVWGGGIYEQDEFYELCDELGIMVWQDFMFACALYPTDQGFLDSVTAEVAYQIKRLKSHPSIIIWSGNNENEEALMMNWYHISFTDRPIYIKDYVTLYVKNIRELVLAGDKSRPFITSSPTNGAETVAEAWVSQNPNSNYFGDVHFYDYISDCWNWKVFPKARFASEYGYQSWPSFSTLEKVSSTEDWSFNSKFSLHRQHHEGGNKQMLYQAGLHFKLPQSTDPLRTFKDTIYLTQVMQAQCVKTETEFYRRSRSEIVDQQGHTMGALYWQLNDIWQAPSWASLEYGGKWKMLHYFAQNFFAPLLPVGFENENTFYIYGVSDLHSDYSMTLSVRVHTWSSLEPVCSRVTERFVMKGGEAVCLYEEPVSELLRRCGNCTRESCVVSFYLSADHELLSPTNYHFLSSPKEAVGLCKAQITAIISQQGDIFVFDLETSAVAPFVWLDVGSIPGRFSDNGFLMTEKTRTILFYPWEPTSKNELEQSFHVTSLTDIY

[6] = target: T1, Alpha-glucosidase (Apis mellifera); experiment: Inhibition of family 13 alpha-glucosidase isoform II from honey bee at 1 umol/mL

SMILES	inhibition [1] [%]	inhibition [2] [%]	inhibition [3] [%]	inhibition [4] [%]	inhibition [5] [%]	inhibition [6] [%]
O=C(CCCCO)NCC1OC(CO)C(O)C(O)C1O (centres undefined)	< 1	100	37.5	18.3	< 1	21.4
O=C(CCCO)NCC1OC(CO)C(O)C(O)C1O (centres undefined)	< 1	< 1		7.6	< 1	3.6
O=C(CCCCCO)NCC1OC(CO)C(O)C(O)C1O (centres undefined)	< 1	< 1	< 1	26	< 1	4.4

Other lines, results leading:

inhibition [1] [%]	inhibition [2] [%]	inhibition [3] [%]	inhibition [4] [%]	inhibition [5] [%]	inhibition [6] [%]	SMILES
5.9	67.4	4.6	16			O=C(NCC1OC(CO)C(O)C(O)C1O)c1ccccc1 (centres undefined)
< 1	< 1	10.4	21.8	< 1	< 1	CC(=O)NCC1OC(CO)C(O)C(O)C1O (centres undefined)
	21.1	< 1	8.5	< 1	2.7	O=C(CCO)NCC1OC(CO)C(O)C(O)C1O (centres undefined)
< 1	< 1	< 52.3	10.7	< 1	4.4	O=C(CO)NCC1OC(CO)C(O)C(O)C1O (centres undefined)
< 1	6.1	< 1	3.8	< 1	< 1	CC(C)(C)C(=O)NCC1OC(CO)C(O)C(O)C1O (centres undefined)
